As a reminder, the IC50 is the concentration that gives 50% inhibition. A lower IC50 goes with greater potency.

These results are taken from ChEMBL document CHEMBL5620416, “Design, synthesis and development of a dual inhibitor of Topoisomerase 1 and poly (ADP-ribose) polymerase 1 for efficient killing of cancer cells” (Eur J Med Chem, 2023).

A short description of data set [1]: Stability in human plasma assessed as compound degradation incubated for 15 mins by HPLC analysis. In kind it is ADME, cell-free. The conditions noted are these: read-out: Drug degradation.
Data set [2] relates to HCT-116. Description: Induction of DNA double stranded break in human HCT-116 cells assessed as increase in 53BP1 level at 20 uM after 4 to 8 hrs by immunofluorescence assay. Type of data set: functional, cell-based. The note with it: time 4-8 hrs.
In data set [3] the test system is PANC-1. Description: Cytotoxicity against human PANC-1 cells at less than 10 uM incubated for 7 to 10 days by crystal violet staining based assay. The note with it: time 7-10 day. Type of data set: functional, cell-based.
Data set [4] has as its system HCT-116. Description: Induction of cell cycle arrest in human HCT-116 cells assessed as accumulation of cells at Sub-G1 phase at 20 uM incubated for 48 hrs by PI staining based flow cytometry analysis (reference value: 2.7 +/- 0.4%). Type of data set: functional.
Data set [5] concerns HCT-116. Nature of the data set: Cytotoxicity against human HCT-116 cells at less than 10 uM incubated for 7 to 10 days by crystal violet staining based assay. Type of data set: functional, cell-based. The conditions noted are these: time 7-10 day.
In data set [6] the test system is PANC-1. Description: Cytotoxicity against human PANC-1 cells incubated for 72 hrs by MTT assay. In kind it is functional, cell-based. The conditions noted are these: PANC-1, 72 h. A general note: Formazan colour is commonly taken as a measure of viable cells.
The subject of data set [7] is MIA PaCa-2. Description: Cytotoxicity against human MIA PaCa-2 cells at less than 10 uM incubated for 7 to 10 days by crystal violet staining based assay. In kind it is functional, cell-based. The conditions noted are these: time 7-10 day.
Data set [8] concerns HCT-116. Description: Cytotoxicity against human HCT-116 cells incubated for 72 hrs by MTT assay. Type of data set: functional, cell-based. The conditions noted are these: HCT-116, 72 h.
The target of data set [9] is Poly [ADP-ribose] polymerase 1 (Homo sapiens) (UniProt P09874). Nature of the data set: Inhibition of recombinant human PARP1 incubated for 10 mins. The conditions noted are these: dose 10-30 µM.
The subject of data set [10] is HCT-116. Nature of the data set: Induction of cell cycle arrest in human HCT-116 cells assessed as accumulation of cells at Sub-G1 phase at 10 uM incubated for 48 hrs by PI staining based flow cytometry analysis (reference value: 2.7 +/- 0.4%). In kind it is functional. On the technique in general: A flow cytometer gives signals particle by particle.
Data set [11] concerns HCT-116. Description: Induction of cell cycle arrest in human HCT-116 cells assessed as accumulation of cells at G2 phase at 20 uM incubated for 48 hrs by PI staining based flow cytometry analysis (reference value: 26%). Type of data set: functional.
In data set [12] the test system is HCT-116. Nature of the data set: Induction of cell cycle arrest in human HCT-116 cells assessed as accumulation of cells at S phase at 20 uM incubated for 48 hrs by PI staining based flow cytometry analysis (reference value: 17%). Type of data set: functional.
The subject of data set [13] is DNA topoisomerase 1/Deoxyribonucleic acid (Homo sapiens). Nature of the data set: Induction of TOP1-DNA covalent complex degradation in human HCT-116 cells at 20 uM measured upto 24 hrs by RADAR assay. In kind it is cell-based.
For data set [14] the test system is unchanged. Description: Induction of TOP1-DNA covalent complex stabilization in human HCT-116 cells after 2 to 6 hrs by RADAR assay. Type of data set: cell-based. The note with it: dose 10-20 µM, time 2-6 hrs.
Data set [15] has as its system HCT-116. Description: Induction of cell cycle arrest in human HCT-116 cells assessed as accumulation of cells at G2 phase at 10 uM incubated for 48 hrs by PI staining based flow cytometry analysis (reference value: 26%). Type of data set: functional.

Activity calls are given as the source filed them. The rule behind the calls is not given here.

Sequence of Poly [ADP-ribose] polymerase 1 (Homo sapiens) (P09874 whole entry): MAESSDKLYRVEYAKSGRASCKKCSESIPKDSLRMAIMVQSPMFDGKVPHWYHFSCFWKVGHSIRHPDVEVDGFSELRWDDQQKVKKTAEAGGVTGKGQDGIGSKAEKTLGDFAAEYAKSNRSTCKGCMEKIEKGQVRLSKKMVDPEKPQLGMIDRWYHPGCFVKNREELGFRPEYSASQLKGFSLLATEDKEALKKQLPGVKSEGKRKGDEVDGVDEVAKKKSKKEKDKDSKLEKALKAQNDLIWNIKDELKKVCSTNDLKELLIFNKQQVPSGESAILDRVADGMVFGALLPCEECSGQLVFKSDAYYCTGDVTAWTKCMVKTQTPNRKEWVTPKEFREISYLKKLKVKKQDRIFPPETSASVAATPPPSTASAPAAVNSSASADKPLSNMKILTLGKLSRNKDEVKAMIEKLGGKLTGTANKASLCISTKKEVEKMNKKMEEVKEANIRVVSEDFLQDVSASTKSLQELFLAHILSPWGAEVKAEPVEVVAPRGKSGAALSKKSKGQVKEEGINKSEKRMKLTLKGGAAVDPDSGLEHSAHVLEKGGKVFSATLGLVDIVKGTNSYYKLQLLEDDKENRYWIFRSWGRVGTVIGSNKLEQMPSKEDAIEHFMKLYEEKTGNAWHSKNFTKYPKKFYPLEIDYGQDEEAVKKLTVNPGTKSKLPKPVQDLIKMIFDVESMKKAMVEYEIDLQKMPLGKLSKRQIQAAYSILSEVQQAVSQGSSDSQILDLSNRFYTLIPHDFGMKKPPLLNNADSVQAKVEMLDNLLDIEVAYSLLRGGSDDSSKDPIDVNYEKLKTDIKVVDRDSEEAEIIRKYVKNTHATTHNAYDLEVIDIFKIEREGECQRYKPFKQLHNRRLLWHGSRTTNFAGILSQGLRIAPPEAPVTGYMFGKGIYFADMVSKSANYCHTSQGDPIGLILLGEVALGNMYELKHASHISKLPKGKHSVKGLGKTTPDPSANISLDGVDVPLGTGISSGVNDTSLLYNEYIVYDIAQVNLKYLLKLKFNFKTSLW

Consider `O=C1c2cccc3cccc(c23)C(=O)N1CCSc1nnc(Cn2nc(Cc3ccc(F)cc3)c3ccccc3c2=O)o1`, for which the metabolised at 0.25 h in [1] worked out at 20%. Also, the result in data set [2], in data set [3], in data set [5], in data set [7] and in data set [13] was Active. Also, the Activity in data set [4] was 57%; in data set [10], 44.2%; in [11], 34%; in data set [12], 39%; in data set [14] it was “Dose-Dependent Effect”; in [15] it was 32%. The IC50 in data set [6] and in data set [8] was 4 µM each time. In data set [9], the inhibition result was “Dose-Dependent Effect”.
